Source: ChEMBL document CHEMBL3046707, “Cheminformatic designing of de novo inhibitors to 3-methyl adenine DNA glycosylase I (LiTagA) from Leptospira interrogans serovar lai strain 56601” (Med Chem Res, 2013)

What follows are compounds tested against T1, DNA-3-methyladenine glycosylase 1 (Escherichia coli (strain K12), UniProt P05100) (assay: Inhibition of Escherichia coli DNA-3-methyladenine glycosylase 1).
T1 sequence (P05100 whole entry): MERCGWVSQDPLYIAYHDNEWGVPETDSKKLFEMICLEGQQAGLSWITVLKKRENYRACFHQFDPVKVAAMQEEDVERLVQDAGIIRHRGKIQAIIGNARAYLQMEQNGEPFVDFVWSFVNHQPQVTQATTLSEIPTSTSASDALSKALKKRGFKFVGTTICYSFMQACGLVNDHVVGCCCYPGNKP
`Nc1ncn(Cc2ccccc2)c2ncnc1-2` [3-BENZYLADENINE] gave an IC50 of 0.4 µM.
Work on `CCCCn1cnc(N)c2ncnc1-2` [3-BUTYLADENINE] yielded an IC50 of 2.3 µM.
Work on `CCn1cnc(N)c2ncnc1-2` [3-ETHYLADENINE] yielded an IC50 of 50 µM.
Work on `Cn1cnc(N)c2ncnc1-2` [3-METHYLADENINE] yielded an IC50 of 1500 µM.
`CCCn1cnc(N)c2ncnc1-2` [3-PROPYLADENINE] was tested, and the IC50 was 5 µM.
